In this assay the test system is CEM cells HIV-1 protection, formazan growth assay. Put plainly: NCI AIDS Antiviral Assay. As to conditions: for IC50: measured here: growth of uninfected CEM cells. In a few lines:
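Five concentrations of each compound were applied to infected and uninfected human CEM cells. Protection from HIV-1 was judged from growth measured with a soluble formazan assay.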

SMILES strings stand for the structures. Active and inactive are the calls of the source.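 How the source made its calls: active means compounds giving half or more protection of infected cells from virus-caused growth loss, again on retest; inactive means the rest.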

This is an account of results in PubChem BioAssay AID179 (DTP/NCI, 2004).

As to `Cc1cc(Cc2c(F)c(F)c(Cc3cc(C)no3)c(F)c2F)on1`, the EC50 (commonly the midpoint of the concentration-response curve) was over 100 µM and the IC50 (usually the concentration needed to halve the response being measured) is over 100 µM.

Consider `COc1ccc(-c2ccccc2)cc1SSc1cc(-c2ccccc2)ccc1OC`, for which the EC50 is over 200 µM and the IC50 came out at 178 µM.

In the case of `Nc1ncnc2c1ccn2CC#CCO`, the EC50 was over 200 µM and the IC50 is over 200 µM.

Regarding `Cc1cc(S(=O)(=O)Nc2nc(N)nc(N3N=CCC3C)n2)c(SCC(=O)O)cc1Cl` (configuration not stated), the EC50 is over 200 µM and the IC50 was over 200 µM.

With `O=C(NC1=Nc2c(ncn2COCCO)S(=O)(=O)[N-]1)c1ccccc1.[Ag+]`, the EC50 was over 200 µM and the IC50 worked out at 3.55 µM.

For `CCCCCCCCCCCCCCCCP(=O)(O)OP(=O)(O)OCC1OC(n2cnc3c(N)ncnc32)C(O)C1O` (configuration not stated), the EC50 was over 100 µM and the IC50 was determined as 19.5 µM.

Consider `NC(=O)CNC(=O)c1ccccc1SC(=O)CCC[n+]1ccccc1`, for which the EC50 is 1.17 µM and the IC50 is 25.7 µM.

Consider `O=C1C=CC(c2ccccc2)(c2ccccc2)O1`, for which the EC50 was over 200 µM and the IC50 is 151 µM.

`Cc1csc([C@H]2CCC3[C@@H]4CC=C5C[C@@H](OC(=O)CCC(=O)O)CC[C@]5(C)C4CC[C@@]32C)n1` (some centres not stated): the EC50 is over 52.5 µM and the IC50 stood at 33.1 µM.

Take `CC(C)N=C(N)NC#N`: the EC50 is over 1480 µM and the 50% inhibitory concentration (IC50) was over 1480 µM.

For `O=C1ON(c2ccccc2)C(c2ccccc2)N1c1ccccc1` (configuration not stated), the EC50 was over 200 µM and the IC50 came out at 61.7 µM.

For `Brc1ccc(C=NC23CC4CC(CC(C4)C2)C3)cc1`, the EC50 is over 56.2 µM and the IC50 was over 56.2 µM.

Take `O=c1ccc2cc3ccc4cccc5ccc(c2o1)c3c45`: the result was inactive.

As to `COc1nc2c(c(=O)n1C)N[C@H]1[C@H](OC(C)=O)[C@@H](OC(C)=O)CO[C@H]1N2`, the EC50 was over 200 µM and the IC50 is over 200 µM.

As to `CC1(C)COP(Oc2ccccc2)OC1`, the EC50 was over 200 µM and the IC50 was over 200 µM.

`O=C(C=Nc1ccccc1C(=O)[O-])c1cccs1.O=C(C=Nc1ccccc1C(=O)[O-])c1cccs1.[Co+2]`: the outcome was inactive.

As for `O=C1CC(c2ccc(O)cc2)C2(O1)C(=O)OC1C(O)COC12O` (configuration not stated), the result was inactive.

For `O=C(O)CCCCCCCCCCCc1ccccc1`, the EC50 was over 200 µM and the IC50 was 18.6 µM.

As for `O=C(Nc1cc(Cl)c(Cl)cc1NC(=O)C(Cl)(Cl)Cl)C(Cl)(Cl)Cl`, the EC50 was over 200 µM and the IC50 came out at 0.417 µM.

As for `COc1cc(/C=N/Nc2nnc3c4ccccc4c4ncccc4c3n2)cc(OC)c1OC`, the EC50 was over 100 µM and the IC50 was determined as 57.5 µM.

Regarding `O=c1cnn(C2OC(CO)C(O)C(F)C2O)c(=O)[nH]1` (configuration not stated), the EC50 is over 200 µM and the IC50 was over 200 µM.

In the case of `O=C(OCCCl)c1ccccc1NC(=O)N1CCOCC1`, the result was inactive.

Consider `CCOC(=O)C1=C(NC(C)(C)C)OC/C1=N\NC(=O)Cc1ccccc1`, for which the EC50 is over 72.4 µM and the IC50 was over 72.4 µM.

Turning to `Nc1nc(Cl)c(CO)c(NCC2(CO)CCC2)n1`, the EC50 is over 200 µM and the IC50 turned out to be 191 µM.

As for `COc1nc(C(=O)O)c(Cl)c(OC)c1Cl`, the EC50 was over 513 µM and the IC50 is over 513 µM.

Consider `CCOC(=O)C(=O)Nc1nc2c(OCC)cccc2s1`, for which the outcome was inactive.

Turning to `COC1C(O)C(n2ccc(=O)[nH]c2=O)OC1[C@@H](O[C@H]1OC(C(=O)NC2CCCCNC2=O)=CC(O)C1O)C(N)=O` (some centres not stated), the outcome was inactive.

For `NC(=O)C(=CNC(=S)Nc1ccc(Cl)c(Cl)c1)C(N)=O`, the EC50 was over 200 µM and the IC50 was determined as 30.2 µM.

For the compound `O=C(c1ccc(Cl)cc1)c1ccc(OCCCOc2ccc(C(=O)c3ccc(Cl)cc3)cc2)cc1`, the EC50 is over 20 µM and the IC50 was over 20 µM.

Regarding `CC1(C)/C(=N\NC(N)=O)C2CCC1C2` (configuration not stated), the EC50 is over 200 µM and the IC50 was over 200 µM.

As for `CC(O[Si](C)(C)C(C)(C)C)[C@H](NC(=O)OCC(Cl)(Cl)Cl)C(=O)O` (some centres not stated), the EC50 was over 617 µM and the IC50 is over 100 µM.

For `Cc1cn(C2CC(N=[N+]=[N-])C(COC(=O)CCCCCCCCCCCc3ccccc3)O2)c(=O)[nH]c1=O` (configuration not stated), the EC50 was 0.0955 µM and the IC50 was 89.1 µM.

As to `CCCCCCCCCCCCP(=O)(O)OCC(N)C(=O)O` (configuration not stated), the EC50 was over 200 µM and the IC50 was determined as 83.2 µM.

On to `OCCNCCN=C1CCC(=NCCNCCO)CC1`, for which the EC50 was over 200 µM and the IC50 came out at 32.4 µM.

On to `CC[C@@H]1C[C@H]2CC3c4c(c5cc(OC)ccc5n4C)CCN(C2)C31`, for which the outcome was inactive.

Consider `Brc1ccccc2cc(-c3ccccc3)nc1-2`, for which the result was inactive.

As to `CCOC1NC(=O)c2ccccc21` (configuration not stated), the result was inactive and the IC50 is over 200 µM.

With `O=C1C2CCN(CC2)C1CNC1(c2ccccc2)CCCCC1` (configuration not stated), the outcome was inactive.

Regarding `NCC1OC(n2cnc3c(N)ncnc32)CC1O` (configuration not stated), the EC50 is over 200 µM and the IC50 was over 200 µM.

Consider `c1ccc(CSc2nc3ccccc3nc2-c2cccs2)cc1`, for which the EC50 is over 21.4 µM and the IC50 is over 21.4 µM.

In the case of `C1CSCCCSCCCSCCCSCCCSC1`, the EC50 was over 14.1 µM and the IC50 was over 14.1 µM.

Regarding `COC(=O)c1c(-c2cc(OC)c(OC)c(OC)c2)oc2ccccc2c1=O`, the EC50 was over 97.7 µM and the IC50 was found to be 1.45 µM.

Take `COC(=O)[C@@H]1CN(C(=O)CCc2ccccc2)C(=O)N1C(=O)OCc1ccccc1`: the EC50 is over 200 µM and the IC50 was 97.7 µM.

For the compound `N#CC1(C#N)C(C#N)(C#N)C12CCCCC2`, the EC50 was over 20 µM and the IC50 is 10 µM.

For the compound `CC(C)(CO)CNc1nc(N)nc(Cl)c1/C=N/O`, the EC50 was over 200 µM and the IC50 came to 5.5 µM.

With `COc1cc(/C=C2\CCOC2=O)ccc1OCc1ccccc1`, the EC50 was over 32.4 µM and the IC50 is over 32.4 µM.

On to `O=C(N1CC2(CN(C(=O)C(F)(F)F)CC3(C1)OCCO3)OCCO2)C(F)(F)F`, for which the EC50 was over 200 µM and the IC50 is over 200 µM.

With `COc1cc(/C=C2\CCC(C)C3C2=NN(C(C)=O)C3c2cc(OC)c(OC)c(OC)c2)cc(OC)c1OC` (configuration not stated), the EC50 was over 100 µM and the IC50 was over 100 µM.

As for `Brc1ccc(-c2[nH]c3ccccc3c2N=Nc2ccccc2)cc1`, the EC50 is over 200 µM and the IC50 was 13.5 µM.

For the compound `CN(C)C=NCC(O)c1ccccc1` (configuration not stated), the EC50 is over 200 µM and the IC50 was over 200 µM.

As for `CCOC(=O)CCC(NC(=O)C(CCC(=O)OCC)NC(=O)C(Cc1ccc([N+](=O)[O-])cc1)NC(C)=O)C(=O)NNC(=O)OC(C)(C)C` (configuration not stated), the EC50 is over 200 µM and the IC50 was over 200 µM.

Turning to `C[Si](C)(C)N1N=NC2C(=O)N(c3ccccc3)C(=O)C21` (configuration not stated), the EC50 is over 200 µM and the IC50 is over 200 µM.

On to `Cc1cccc(Nc2nc(N)nc(N)c2N=O)c1`, for which the EC50 is over 200 µM and the IC50 is 20.9 µM.

As to `[O-]/N=N\c1on[n+](CCc2ccccc2)c1Cc1c(/N=N/[O-])on[n+]1CCc1ccccc1`, the result was inactive.

Regarding `O=S(=O)(SSS(=O)(=O)c1ccc(Cl)c(Cl)c1)c1ccc(Cl)c(Cl)c1`, the EC50 is over 53.7 µM and the IC50 is over 53.7 µM.

In the case of `Cc1c(C)c2ccc3occc(=O)c3c2oc1=O`, the EC50 was over 195 µM and the IC50 was 95.5 µM.

Turning to `O=[N+]([O-])c1ccc(C2=Nn3cnnc3SC2)o1`, the result was inactive.

As for `CC(=O)Oc1ccc[nH]c1=O`, the EC50 was over 200 µM and the IC50 came to 58.9 µM.

With `CCOC(=O)N1CCC(=O)C(CNC23CC4CC(CC(C4)C2)C3)C1` (configuration not stated), the EC50 is over 4170 µM and the IC50 turned out to be 204 µM.

In the case of `O=C1c2ccccc2CCC1C(O)(C(F)(F)F)C(F)(F)F` (configuration not stated), the EC50 is over 200 µM and the IC50 is over 200 µM.

In the case of `Cc1ccc(S(=O)(=O)N/N=C2\C=C[C@]3(CC2)C(=O)N(C)c2ccccc23)cc1`, the EC50 is over 200 µM and the IC50 was found to be 102 µM.

For `O=c1cc(CC(O)(C(F)(F)Cl)C(F)(F)Cl)[nH]n1-c1ccccc1`, the EC50 is over 200 µM and the IC50 is 117 µM.

Take `O=[N+]([O-])c1ccc(C2CC3(c4ccccc4)ON=C(c4ccccc4)N3c3ccccc3S2)cc1` (configuration not stated): the EC50 was over 200 µM and the IC50 was 102 µM.

For the compound `CN(C)C(=S)Sc1nsc(SC(=S)N(C)C)n1`, the EC50 is over 200 µM and the concentration for half-maximal inhibition (IC50) was over 200 µM.

In the case of `Nc1ccccc1CN1C(=O)c2ccccc2C1=O`, the EC50 is over 200 µM and the IC50 came out at 3.55 µM.

With `CC(=O)O[C@H]1[C@@H](OC2CCCC2(c2ccccc2)c2ccccc2)O[N+]([O-])=C[C@@H]1c1ccccc1` (some centres not stated), the EC50 was over 200 µM and the IC50 amounted to 3.09 µM.

For the compound `C[CH2][Ge]([CH2]C)([CH2]C)[O]C(=O)C(OC(C)=O)c1ccccc1` (configuration not stated), the EC50 is over 251 µM and the IC50 came to 195 µM.

Turning to `Cc1cccc2c1Oc1ccccc1C2NC(=O)CN(C)C` (configuration not stated), the EC50 was over 437 µM and the IC50 worked out at 83.2 µM.

With `CC(=O)Nc1ccc(S(=O)(=O)NN=C2CCCC2)cc1`, the EC50 is over 851 µM and the IC50 worked out at 708 µM.

In the case of `CCCc1cc(=O)oc2c3c(cc(OC)c12)O[C@H](C)[C@H](C)[C@@H]3O`, the EC50 is over 200 µM and the IC50 came to 38.9 µM.

In the case of `N#Cc1c(CC(=O)O)cc(=O)n2c1[nH]c1ccccc12`, the EC50 is over 933 µM and the IC50 was found to be 316 µM.

Compound `NS(=O)(=O)c1ccc(CNC(=O)c2ccccc2SC(=O)Oc2ccc([N+](=O)[O-])cc2)cc1` gave an EC50 of 1.17 µM and an IC50 of 36.3 µM.

With `CCOC(=O)C1C(c2ccc(OC)cc2)C(C(=O)OCC)C(O)(C(F)(F)F)OC1(O)C(F)(F)F` (configuration not stated), the EC50 was over 257 µM and the IC50 was determined as 151 µM.

As to `Cc1cc(Cl)ccc1C1OC(=O)c2c1ccc1ccccc21` (configuration not stated), the EC50 was over 23.4 µM and the IC50 was over 23.4 µM.
